The OligoGym collection
These antisense oligonucleotides have a phosphorothioate backbone; sugars and methylation of C are not fully specified.

Columns and labels:
Conditions in all cases: ASO
[1] = molecular target: PRKAR2A
[2] = molecular target: CHEK2
[3] = molecular target: RIPK2
[4] = molecular target: NCOA2
Further: test concentration or dose not given here.

| Sequence | remaining target (mRNA or protein) (fraction of control) [1] | remaining target (mRNA or protein) (fraction of control) [3] | also measured |
| --- | --- | --- | --- |
| CTGACACCTCTAGTGATTTA | ≥ 1 |  |  |
| TTTATTCCCCACCACTTTGT |  |  | remaining target (mRNA or protein) (fraction of control) [2]: 0.38 |
| AACATCCGACTCCCGAGACA |  |  | remaining target (mRNA or protein) (fraction of control) [2]: 0.65 |
| TGCATAGCTATATATATCGT |  | 0.77 |  |
| TGCCGGCGGCGGCCGAAGGG | ≥ 1 |  |  |
| ATAAAGCTTTAATACTCACG |  | 0.93 |  |
| TCCACAGCACGGTTATACCC |  |  | remaining target (mRNA or protein) (fraction of control) [2]: 0.28 |
| CGGGATCTGGATGTGGCTCA | 0.81 |  |  |
| GGCCTCCCCGTTCATGGTCC |  | 0.45 |  |
| GAAGCCACGGGTGTCTTAAG |  |  | remaining target (mRNA or protein) (fraction of control) [2]: 0.86 |
| GCAGGTCGGCGAGTTTGTGG |  | ≥ 1 |  |
| ATAACTAAGCATTTGACATC | 0.94 |  |  |
| AGATGGCCTCCCCGTTCATG |  | 0.51 |  |
| GTGGCTCATGCCGGCGGCGG | ≥ 1 |  |  |
| CGCACGGCCCCGGCTCACGT | 0.68 |  |  |
| GGCTCATGCCGGCGGCGGCC | 0.62 |  |  |
| GATACGCCCCTGCACGAGCG |  | 0.65 |  |
| GTCAGTAGTGTCTAGTAATT |  | 0.52 |  |
| ATGTGGCTCATGCCGGCGGC | 0.95 |  |  |
| CTGGATGTGGCTCATGCCGG | 0.52 |  |  |
| GCAGCGGGCAATCTCGACCT | 0.5 |  |  |
| CGAACCAGAGCTGACTTCTT |  | 0.28 |  |
| TCTTTCATGATCAAGTCCCT |  | 0.42 |  |

| Sequence | remaining target (mRNA or protein) (fraction of control) [1] | remaining target (mRNA or protein) (fraction of control) [3] | also measured |
| --- | --- | --- | --- |
| TGTTCAAACCACGGAGTTCA |  |  | remaining target (mRNA or protein) (fraction of control) [2]: 0.62 |
| AAGGCTTCTTCTGTCGTAAA |  |  | remaining target (mRNA or protein) (fraction of control) [2]: 0.96 |
| CATGGTCCCGGGCGCTCAGG |  | ≥ 1 |  |
| TTTCCTATGTAGGAGTTCAT |  | ≥ 1 |  |
| CCTCCCCGTTCATGGTCCCG |  | 0.24 |  |
| GATAATTGTCCCTCCTTCTG |  | ≥ 1 |  |
| CAGAGTGAAAGAAGGACATT |  |  | remaining target (mRNA or protein) (fraction of control) [2]: ≥ 1 |
| GGATTTCCCTCTGTCTCT |  |  | remaining target (mRNA or protein) (fraction of control) [4]: 0.32 |
| GTAGAGCTGTGGATTCATTT |  |  | remaining target (mRNA or protein) (fraction of control) [2]: 0.67 |
| GAGAGACAGCGAAGCACT |  |  | remaining target (mRNA or protein) (fraction of control) [4]: 0.29 |
| AGGAATAGAATAGAGTTCCT |  |  | remaining target (mRNA or protein) (fraction of control) [2]: ≥ 1 |
| TTGAACCTCTGCCCATCCTT | 0.39 |  |  |
| TGGTCCCGGGCGCTCAGGCC |  | 0.23 |  |
| GCGCAACCCTACGCTACCAC | 0.53 |  |  |
| CACACCTACTGCCCGAGGTT | 0.38 |  |  |
| TTTTAATCTTGATGATGCAA |  |  | remaining target (mRNA or protein) (fraction of control) [2]: 0.71 |
| AAAACTGACTGGGTGGGA |  |  | remaining target (mRNA or protein) (fraction of control) [4]: ≥ 1 |
| ATGTAACTAAATCTAGCTTT |  | 0.72 |  |
| AATCCGAAAGTGTTTCTTGC |  |  | remaining target (mRNA or protein) (fraction of control) [2]: ≥ 1 |
| CATGAGAGAGGTCTCTCCCA |  |  | remaining target (mRNA or protein) (fraction of control) [2]: 0.85 |
| ATCTGTATCTTCCTCTTCCT | 0.73 |  |  |
| TGAGTGATTATGCGTTCTCC | 0.8 |  |  |
| CTGGCTTCAGCAGTGTCA |  |  | remaining target (mRNA or protein) (fraction of control) [4]: 0.72 |

| Sequence | remaining target (mRNA or protein) (fraction of control) [1] | remaining target (mRNA or protein) (fraction of control) [3] | also measured |
| --- | --- | --- | --- |
| AAACTTTCTCTTCATGTCTT |  |  | remaining target (mRNA or protein) (fraction of control) [2]: ≥ 1 |
| CCCGAGGTTGCCCAGATCCA | ≥ 1 |  |  |
| AAGGAGAATATCTTTGCAAG | ≥ 1 |  |  |
| ATTGCATCTTAGACAAGTAA |  | ≥ 1 |  |
| GCGGCCACTGTCTCCGCGCT | 0.67 |  |  |
| TGCACATTTGTCAGGTTT |  |  | remaining target (mRNA or protein) (fraction of control) [4]: 0.18 |
| CACCAAGGGCAATTTCATGC |  | 0.15 |  |
| CATTTACTATAGACTTTG |  |  | remaining target (mRNA or protein) (fraction of control) [4]: 0.79 |
| TCAGCAGTGGTTCATCAAAG |  |  | remaining target (mRNA or protein) (fraction of control) [2]: 0.63 |
| ATCAGGCTGTTGACTTTATT |  | 0.53 |  |
| AACCACCAAACCTGCCCA |  |  | remaining target (mRNA or protein) (fraction of control) [4]: 0.42 |
| TTCTAAAAGTCACCCGGTCC | 0.39 |  |  |
| GCATGTTTATACTTTGGACT | 0.83 |  |  |
| CCCGTTCATGGTCCCGGGCG |  | 0.6 |  |
| GAGAGACATGCCGTTTTGAA | 0.51 |  |  |
| AAAACAGTCACTTACATGCT |  | 0.52 |  |
| TGTGGCTGACCAGAAGGTTT | 0.53 |  |  |
| CTAGGAACTGGAACTTCCAA | 0.91 |  |  |
| TCCCCGTTCATGGTCCCGGG |  | 0.24 |  |
| TGAGATGACAGTAAAACATT |  |  | remaining target (mRNA or protein) (fraction of control) [2]: ≥ 1 |
| GACGGCGTTTTCCTTTCCCT |  |  | remaining target (mRNA or protein) (fraction of control) [2]: 0.49 |
| CCCTAAATTTCCTTGGTT |  |  | remaining target (mRNA or protein) (fraction of control) [4]: 0.82 |
